Source: patent publication US20040138239A1, “Compositions and methods for targeting cerebral circulation and treatment of headache” (priority 2004, published 2004)

Tests used:
headache = assay: Inventors' observation: topical NSAID formulations in treatment of a headache; assay type: in vivo, human; conditions: applied to tender spot or area superficial to carotid, temporal and/or vertebral artery
From the text: Especially preferred compositions include a xanthine derivative in a concentration of about 4% (wt) to 70% (wt) and ketoprofen in a concentration of about 0.5% (wt) to 50% (wt). With respect to the xanthine derivative, the same considerations as described above apply. Furthermore, such particularly preferred compositions may be formulated in a lecithin-containing formulation or a pluronic-lecithin-organogel formulation (supra). It should be especially recognized, that compositions including a xanthine derivative or an NSAID have generally been described in the art. However, the inventors observed that formulations including an NSAID other than Ketoprofen generally fail to provide relief in treatment of a headache, when topically applied to a person (either to a tender spot, or to an area superficial to a carotid artery, a temporal artery and/or a vertebral artery). It is therefore a surprising result that Ketoprofen is the only NSAID effective in treatment of a headache when used in protocols according to the inventive subject matter (see also examples). While not wishing to be bound by a particular hypothesis or theory, the inventors contemplate that the effect of Ketoprofen may be at least in part mediated by a muscle-relaxant effect rather than via a suppressive effect in inflammation.

fever = conditions: oral delivery; cited from earlier work

Structure (SMILES) | relief in treatment of a headache when topically applied (headache) | time to achieve sufficient plasma concentration to lower the fever (fever)
CC(C(=O)O)c1cccc(C(=O)c2ccccc2)c1 (centres unmarked) [Ketoprofen, 2-(meta-benzoylphenyl)pro-pionic acid] | effective | –
CC(=O)Nc1ccc(O)cc1 [Acetaminophen] | – | at least 20 minutes
